The numbers were not newly measured in patent publication US11450405B2, “Techniques for modeling parathyroid gland functionality and calcimimetic drug activity” (Fresenius Medical Care Holdings, Inc., priority 2018, dated 2022), which cites them from elsewhere.

Like-named read-outs stand apart in the source and are kept apart here.

The conditions of data set [1]: for effect of hemodialysis on the pharmacokinetics: hemodialysis patients.
The next data set concerns PTH concentration. The settings on record: after the administration of cinacalcet.
Setting [2] is: listed as Cinacalcet hydrochloride.

Turning to `C[C@@H](NCCCc1cccc(C(F)(F)F)c1)c1cccc2ccccc12` [cinacalcet], the “fraction of the drug in the plasma that is protein bound” value is recorded as “Around 95%”. Besides, in data set [1] (administration with food), the “bio-availability on administration with food” value is reported as “higher”, the “peak concentrations on administration with food” value is “higher” and the “total exposure values on administration with food” value is “higher”. Besides, in data set [1] (following oral administration), the “time at which plasma concentration peaks” value was 2 to 6 h. Further, the “effect of hemodialysis on the pharmacokinetics” value in data set [1] is “negligible”. Besides, in data set [1] (setting [2]), the “effect of hemodialysis on the pharmacokinetics” value was “not altered”. Further, the “higher terminal half-life values in hepatic impairment” value in data set [1] (moderate to severe hepatic impairment) is recorded as 40-70%. Besides, in data set [1] (oral administration), the absolute bioavailability was 20-25% and the absorption was roughly 100%. In data set [1] (single 75 mg dose), the “Bio (bioavailability), reference range” value is 20-25%; the “VD, reference range” value is 1000 to 1250 L; the “half-life of distribution t1/2^D, reference value” was 6 h; the “terminal half-life, reference range” value is 30 to 40 h. Further, in data set [1] (single 75 mg dose), the “tmax, reference range” value was 1 to 6 h. In addition, the “Cmax, mean reference value” in data set [1] (single 75 mg dose, SD 9.4) is 26.6 ng/mL. For the same compound, in data set [1] (single 75 mg dose, SD 148), the “mean apparent oral clearance rate CL/F” value is reported as 314 L/h. Moreover, in data set [1] (single oral dose of 75 mg), the “apparent oral clearance rate CL/F (target)” value is recorded as “around 314 L/h”, the “apparent volume of distribution at steady state VD (target)” value is “around 1000 L”, the “distribution half-life tD (target)” value is 6 h and the “time until the maximum plasma concentration is reached (target)” value is “around 2.3 hours”. Besides, the “volume of distribution at steady state” value in data set [1] (steady state) was 1000 L. For the same compound, the “time after dosing at which PTH concentration reaches a minimum” value with PTH concentration was 2 to 3 h. Besides, under setting [2], the “fraction of the drug in the plasma that is protein bound” value is on record as roughly 95%.
